From PubChem BioAssay (NCI)
Where “and” joins values, the source holds several entries; their conditions need not be identical. Equal entries are not always repeated.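 48-hour exposure; five concentrations; linearly interpolated endpoints. The concentration for 50% growth inhibition is given as GI50. TGI: total growth inhibition.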 Where a SMILES comes first, the peptide text is derived from it. [ ]: non-standard residue; d: D form. The star is where a group is joined. NMeF = CN[C@@H](Cc1ccccc1)C(=O)O; NMeV = CN[C@H](C(=O)O)C(C)C; Boc = CC(C)(C)OC(=O)*; OBn = c1ccc(CO*)cc1

Assays:
Experiment in all cases: NCI tumour cell line growth inhibition, 48 h
NCI/ADR-RES ovarian = tested on: NCI/ADR-RES ovarian
NCI-H226 lung = tested on: NCI-H226 lung
LOX IMVI melanoma = tested on: LOX IMVI melanoma
HCT-116 colon = tested on: HCT-116 colon
UACC-257 melanoma = tested on: UACC-257 melanoma
BT-549 breast = tested on: BT-549 breast
786-0 renal = tested on: 786-0 renal
IGROV1 ovarian = tested on: IGROV1 ovarian
HT29 colon = tested on: HT29 colon
NCI-H522 lung = tested on: NCI-H522 lung

SMILES	GI50 (NCI/ADR-RES ovarian) [µM]	TGI (NCI/ADR-RES ovarian) [µM]	GI50 (NCI-H226 lung) [µM]	TGI (NCI-H226 lung) [µM]	GI50 (LOX IMVI melanoma) [µM]	TGI (LOX IMVI melanoma)	GI50 (HCT-116 colon) [µM]	TGI (HCT-116 colon) [µM]	GI50 (UACC-257 melanoma) [µM]	TGI (UACC-257 melanoma) [µM]	GI50 (BT-549 breast) [µM]	TGI (BT-549 breast) [µM]	GI50 (786-0 renal) [µM]	TGI (786-0 renal) [µM]	GI50 (IGROV1 ovarian) [µM]	TGI (IGROV1 ovarian) [µM]	GI50 (HT29 colon) [µM]	TGI (HT29 colon) [µM]	GI50 (NCI-H522 lung) [µM]	TGI (NCI-H522 lung) [µM]
O=S(=O)(CCNCc1ccc(-c2ccc3ncnc(Nc4ccc(OCc5cccc(F)c5)c(Cl)c4)c3c2)o1)c1ccccc1	> 25	> 25	> 25	> 25	> 25	> 25 µM	> 25	> 25	> 25	> 25	> 25	> 25	> 25	> 25	> 23.6	> 25	> 25	> 25	> 19.5	> 25
Clc1ccc(C2=NN[C@H](c3cn(-c4ccccc4)nc3-c3ccccc3)C2)cc1	3.17	12.7	5.96	25.4	3.99	15.1 µM	2.03	4.01	4.91	37.5	10.3	28.4	4.88	18.6	6.28	33.2	5.76	55.8	4.64	28.4
S=C(c1ccc2c(c1)OCO2)N1CCN(c2cccc(Cl)c2)CC1	0.635	> 100	14	> 100	1.14	> 100 µM	0.454	14.5	–	> 21.2	9.32	> 100	1.22	> 59.6	3.88	> 100	0.406	> 100	0.382	–
Brc1ccccc1C=NC12CC3CC(CC(C3)C1)C2	–	> 100	–	> 100	–	> 100 µM	–	> 100	–	> 100	–	> 100	–	> 100	–	> 100	–	> 100	–	> 100
CC(=O)OC1Oc2cc(C)c(C)cc2-c2oc(=O)c(-c3ccc(F)cc3)cc21 (configuration not stated)	2.86	9.34	12.9	> 100	5.61	> 100 µM	4.23	46.2	10.3	26	7.76	45.9	9.55	> 100	7.94	85.2	2.7	12.1	4.53	19
O=C1CCC(N2Cc3c(C#CCCCNC(=O)c4cc5c(o4)C(=O)c4ccccc4C5=O)cccc3C2=O)C(=O)N1 (configuration not stated)	> 100	> 100	12.5	30.2	2.14	5.49 µM	3.09	10.3	2	4.48	1.73	3.17	15.3	32	4.03	17.2	5.92	39.9	1.98	4.61
C/C(=C\CCc1ccsc1)CC/C=C(\C)CCCN1CCC(CO)CC1	3.33	13.3	3.94	21	1.77	3.27 µM	1.67	3.32	1.84	4.06	1.7	3.51	1.77	3.36	3.26	10.8	1.94	5.64	1.9	3.74
COc1cc(-n2cnc(-c3ccc(Cl)cc3)c2)cc(OC)c1OC	16.9	45.1	> 100	> 100	18	34.3 µM	> 100	> 100	18.3	34.1	16.7	31.3	> 100	> 100	30.7	> 100	16.1	32.8	15.6	34.3
CCCC(=O)Nc1ccc2c(c1)CN1C(=O)c3ccccc3C1=N2	–	> 100	–	> 100	–	> 100 µM	–	> 100	–	> 100	–	> 100	–	> 100	–	> 100	–	> 100	–	> 100
Cn1ccnc1C(=O)/C=C/c1ccc(CC(=O)Nc2ccc(F)cc2)cc1	4.24	> 25	8.57	> 25	0.712	3.9 µM	0.99	3.68	6.99	21.6	1.32	6.01	1.37	7.09	2.93	16.6	2.27	8.21	3.34	8.41
CCn1c(-c2nonc2N)nc2cncc(C(=O)NCCNC)c21	18.9	> 25	0.454	> 25	> 25	> 25 µM	2.78	> 25	3.04	> 25	3.13	> 22.3	12.1	> 25	4.87	> 22.6	0.817	> 25	13.1	> 25
CCN(CC)CCCCNc1ncc2cc(-c3cc(OC)cc(OC)c3)c(NC(=O)NC(C)(C)C)nc2n1	8.01	27.3	2.57	24.8	5.34	18.8 µM	4.13	16.3	1.78	3.68	2.15	18	5.42	19.3	3.64	16.3	3.31	13.9	6.45	18.4
COc1ccc2cc(Cn3cc[n+](Cc4ccc5ccccc5c4)c3)ccc2c1	> 100	> 100	2.97	16.4	1.5	2.86 µM	2.23	7.43	1.95	5.09	1.96	4.17	4.72	19.6	1.75	4.87	1.76	8.23	1.53	4.68
O=C(NCCNc1nccc(-c2c(-c3ccc(F)cc3)nc3sccn23)n1)c1ccccc1	7.13	76.4	5.87	25	4.3	31.4 µM	4.37	35.8	14.3	41.1	14.3	34	15.3	> 100	3.48	24.1	4.31	> 100	11.1	27.4
C=CC[C@@H]1/C=C(\C)C[C@H](C)C[C@H](OC)[C@H]2O[C@@](O)(C(=O)C(=O)N3CCCC[C@H]3C(=O)O[C@H](/C(C)=C/C3CC[C@@H](O)[C@H](OC)C3)[C@H](C)[C@@H](O)CC1=O)[C@H](C)C[C@@H]2OC (some centres not stated)	15	35.3	15.3	30.1	15	29.7 µM	13.8	26.7	15.8	30.6	10	27.2	17.3	35.1	17.3	41	17.6	33.5	12.7	27
NC1=CC(=O)c2nc3ccccc3c3ccnc1c23	7.33	69.4	0.937	> 32.6	0.219	4.22 µM	3.99	> 100	2.37	20	6.9	27.9	7.49	> 66.5	1.57	6.33	3.52	21.2	2.48	17.3
CCC(c1ccc2cc(O)ccc2c1)C(C)(C)C(=O)O (configuration not stated)	–	> 100	–	> 100	–	> 100 µM	–	> 100	–	> 100	–	> 100	–	> 100	–	> 100	–	> 100	–	> 100
CNC(=O)NC(CCCCNC(=O)OCc1ccccc1)C(=O)OCc1ccccc1 (configuration not stated)	–	> 100	–	> 88.6	–	> 78.2 µM	–	> 100	–	36.8	–	> 100	–	> 100	–	> 100	–	> 100	–	21.4
CC(C)[C@@H](C(=O)N1CCC[C@H]1C(=O)OCc1ccccc1)N(C)C(=O)[C@H](C(C)C)N(C)C(=O)[C@H](Cc1ccccc1)N(C)C(=O)[C@H](NC(=O)OC(C)(C)C)C(C)C (Boc-[dV][NMeF][NMeV][NMeV]P-OBn)	–	> 50	–	> 100	12.9	> 50 µM and 26.6 µM	19.6	> 100	16.5	> 100	–	> 50	39.5	> 100	–	> 100	–	> 100	–	> 50
Cc1cc(C)c2nc3nc(C)cc(C)c3c(N)c2c1	6.88	36.9	5.4	24.7	3.51	14.9 µM	3.12	15	5.71	29.8	11	31.7	4.07	17.4	3.64	28.2	2.49	13.6	5.46	22.6
